In US20260365682A1, “MODULATORS OF TNF-ALPHA ACTIVITY” (Forward Therapeutics, Inc., priority 2022, published 2026) one finds IC50 data, which are given here for 21 compounds.

This test deals with T1, TNF-α (Homo sapiens, UniProt P01375).
T1 construct: purchased R&D 210-TA-020/CF
As to the kind of experiment: TNF-α Induced HEK Blue Cellular Assay (secreted alkaline phosphatase expression, QUANTI-Blue). The conditions noted are these: HEK Blue TNFα reporter cells; TNF-α 100 μg/ml; 24 hrs at 37° C.; inhibition of secreted alkaline phosphatase; read-out: IC50 value. It is filed as cell-based. As to the method: TNF-α Induced HEK Blue Cellular Assay
Test articles were diluted in DMSO and serially diluted into 384 well assay plate (Corning 3765), at final concentrations ranging from […] to 0.5 nM. HEK Blue™ TNFα reporter cells were added at a final density of 10,000 cell per well in assay media [DMEM (Gibco, cat #21063-029), 10% fetal bovine serum (ExcelBio, cat #FND500), 1% Penicillin-Streptomycin (Solarbio, cat #P1400-100]. TNF-α (R&D 210-TA-020/CF) was then added to the assay plate at a final concentration of […]. This plate was then incubated for 24 hrs at 37° C. and 5% CO2. Secreted alkaline phosphatase expression was then measured using QUANTI-Blue™ (Invivogen), according to manufacturer instructions and read on an Envision microplate reader at 620 nm.
Inhibition data for test compound over a range of concentration was plotted as percentage inhibition of the test compound (100%=maximum inhibition). IC50 values were determined after correcting for background [(sample read-mean of low control)/(mean of high control-mean of low control)] whereby the low control is DMSO without stimulation and high control is DMSO with stimulation. The IC50 is defined as the concentration of test compound which produces 50% inhibition and was quantified using the 4 parameter logistic equation to fit the data.

pIC50: −log10 of the molar value.

T1 sequence (P01375 77-233 limits assumed): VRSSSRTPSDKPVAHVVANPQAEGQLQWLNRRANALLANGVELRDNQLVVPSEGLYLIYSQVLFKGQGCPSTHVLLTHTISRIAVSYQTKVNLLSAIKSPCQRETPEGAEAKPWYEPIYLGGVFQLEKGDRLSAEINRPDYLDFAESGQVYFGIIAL

In general, pIC50 refers to the IC50 on a negative log10 scale, so that one unit is a factor of ten. Take `[2H]C([2H])([2H])N1C(=O)c2cccc(OC(F)F)c2[C@H]2C[C@@H]1c1nc3ccc(C#Cc4nnc(C)s4)cc3n12` [Example 29, (7R,14R)-1-(difluoromethoxy)-6-(methyl-d3)-11-((5-methyl-1,3,4-thiadiazol-2-yl)ethynyl)-6,7-dihydro-7,14-methanobenzo[f]benzo[4,5]imidazo[1,2-a][1,4]diazocin-5(14H)-one]: the pIC50 is over 7.00.
For `CC1C(C#Cc2ccc3nc4n(c3c2)[C@@H]2C[C@H]4N(C)C(=O)c3cccc(OC(F)F)c32)CN1C1COC1` (single isomer, unassigned) [Example 257, (7R,14R)-1-(difluoromethoxy)-6-(methyl-d3)-11-(((2S or 2R)-2-methyl-1-(oxetan-3-yl)azetidin-3-yl)ethynyl)-6,7-dihydro-7,14-methanobenzo[f]benzo[4,5]imidazo[1,2-a][1,4]diazocin-5(14H)-one], the pIC50 is over 7.00.
The result for `[2H]C([2H])([2H])N1C(=O)c2cccc(OC(F)F)c2[C@H]2C[C@@H]1c1nc3ccc(C#Cc4cncnc4)cc3n12` [Example 11, (7R,14R)-1-(difluoromethoxy)-6-(methyl-d3)-11-(pyrimidin-5-ylethynyl)-6,7-dihydro-7,14-methanobenzo[f]benzo[4,5]imidazo[1,2-a][1,4]diazocin-5(14H)-one] reads over 7.00.
Turning to `[2H]C([2H])([2H])N1C(=O)c2cccc(OC(F)F)c2[C@H]2C[C@@H]1c1nc3ccc(C#Cc4nnc(C)o4)cc3n12` [Example 28, (7R,14R)-1-(difluoromethoxy)-6-(methyl-d3)-11-((5-methyl-1,3,4-oxadiazol-2-yl)ethynyl)-6,7-dihydro-7,14-methanobenzo[f]benzo[4,5]imidazo[1,2-a][1,4]diazocin-5(14H)-one], the pIC50 is over 7.00.
As for `[2H]C([2H])([2H])N1C(=O)c2cccc(OC(F)F)c2[C@H]2C[C@@H]1c1nc3ccc(C#CC4(F)CN(C5COC5)C4)cc3n12` [Example 252, (7R,14R)-1-(difluoromethoxy)-11-((3-fluoro-1-(oxetan-3-yl)azetidin-3-yl)ethynyl)-6-(methyl-d3)-6,7-dihydro-7,14-methanobenzo[f]benzo[4,5]imidazo[1,2-a][1,4]diazocin-5(14H)-one], the pIC50 was over 7.00.
Turning to `[2H]C([2H])([2H])N1C(=O)c2cccc(OC(F)F)c2[C@H]2C[C@@H]1c1nc3ccc(C#Cc4ccnn4C)cc3n12` [Example 13, (7R,14R)-1-(difluoromethoxy)-6-(methyl-d3)-11-((1-methyl-1H-pyrazol-5-yl)ethynyl)-6,7-dihydro-7,14-methanobenzo[f]benzo[4,5]imidazo[1,2-a][1,4]diazocin-5(14H)-one], the pIC50 is over 7.00.
With `[2H]C([2H])([2H])N1C(=O)c2cccc(OC(F)F)c2[C@H]2C[C@@H]1c1nc3ccc(C#CC4(C)CN(C(=O)C(C)(C)C)C4)cc3n12` [Example 167, (7R,14R)-1-(difluoromethoxy)-6-(methyl-d3)-11-((3-methyl-1-pivaloylazetidin-3-yl)ethynyl)-6,7-dihydro-7,14-methanobenzo[f]benzo[4,5]imidazo[1,2-a][1,4]diazocin-5(14H)-one] the figure was over 7.00; with `[2H]C([2H])([2H])N1C(=O)c2cccc(OC(F)F)c2[C@H]2C[C@@H]1c1nc3ccc(C#CCC(O)C(C)O)cc3n12` (single isomer, unassigned) [Example 245, (7R,14R)-1-(difluoromethoxy)-11-((4S or 4R,5S or 5R)-4,5-dihydroxyhex-1-yn-1-yl)-6-(methyl-d3)-6,7-dihydro-7,14-methanobenzo[f]benzo[4,5]imidazo[1,2-a][1,4]diazocin-5(14H)-one], over 7.00; with `[2H]C([2H])([2H])N1C(=O)c2cccc(OC(F)F)c2[C@H]2C[C@@H]1c1nc3ccc(C#Cc4cnn(C)c4C#N)cc3n12` [Example 24, 4-(((7R,14R)-1-(difluoromethoxy)-6-(methyl-d3)-5-oxo-5,6,7,14-tetrahydro-7,14-methanobenzo[f]benzo[4,5]imidazo[1,2-a][1,4]diazocin-11-yl)ethynyl)-1-methyl-1H-pyrazole-5-carbonitrile], over 7.00.
The result for `[2H]C([2H])([2H])N1C(=O)c2cccc(OC(F)F)c2[C@H]2C[C@@H]1c1nc3ccc(C#CC4CN(C5CC5)C4)cc3n12` [Example 223, (7R,14R)-11-((1-cyclopropylazetidin-3-yl)ethynyl)-1-(difluoromethoxy)-6-(methyl-d3)-6,7-dihydro-7,14-methanobenzo[f]benzo[4,5]imidazo[1,2-a][1,4]diazocin-5(14H)-one] reads 6.00 to 7.00.
Turning to `[2H]C([2H])([2H])N1C(=O)c2cccc(OC(F)F)c2[C@H]2C[C@@H]1c1nc3ccc(C#CC4CC4(F)F)cc3n12` (stereo partly drawn) [Example 196, (7R,14R)-11-((2,2-difluorocyclopropyl)ethynyl)-1-(difluoromethoxy)-6-(methyl-d3)-6,7-dihydro-7,14-methanobenzo[f]benzo[4,5]imidazo[1,2-a][1,4]diazocin-5(14H)-one], the pIC50 was 6.00 to 7.00.
The result for `[2H]C([2H])([2H])N1C(=O)c2cccc(OC(F)F)c2[C@H]2C[C@@H]1c1nc3ccc(C#Cc4cnc(C(F)(F)F)nc4)cc3n12` [Example 23, (7R,14R)-1-(difluoromethoxy)-6-(methyl-d3)-11-((2-(trifluoromethyl)pyrimidin-5-yl)ethynyl)-6,7-dihydro-7,14-methanobenzo[f]benzo[4,5]imidazo[1,2-a][1,4]diazocin-5(14H)-one] reads 6.00 to 7.00; that for `[2H]C([2H])([2H])N1C(=O)c2cccc(OC(F)F)c2[C@H]2C[C@@H]1c1nc3ccc(C#CCCN4CCOCC4)cc3n12` [Example 101, (7R,14R)-1-(difluoromethoxy)-6-(methyl-d3)-11-(4-morpholinobut-1-yn-1-yl)-6,7-dihydro-7,14-methanobenzo[f]benzo[4,5]imidazo[1,2-a][1,4]diazocin-5(14H)-one], over 7.00; that for `[2H]C([2H])([2H])N1C(=O)c2cccc(OC(F)F)c2[C@H]2C[C@@H]1c1nc3ccc(C#CC4CCN(C(=O)C5CC5)C4)cc3n12` (stereo partly drawn) [Example 201, (7R,14R)-11-((1-(cyclopropanecarbonyl)pyrrolidin-3-yl)ethynyl)-1-(difluoromethoxy)-6-(methyl-d3)-6,7-dihydro-7,14-methanobenzo[f]benzo[4,5]imidazo[1,2-a][1,4]diazocin-5(14H)-one], 4.52 to 5.00.
For the compound `[2H]C([2H])([2H])N1C(=O)c2cccc(OC(F)F)c2[C@H]2C[C@@H]1c1nc3ccc(C#CC4(C)CCCN(C(C)=O)C4)cc3n12` (stereo partly drawn) [Example 225, (7R,14R)-11-((1-acetyl-3-methylpiperidin-3-yl)ethynyl)-1-(difluoromethoxy)-6-(methyl-d3)-6,7-dihydro-7,14-methanobenzo[f]benzo[4,5]imidazo[1,2-a][1,4]diazocin-5(14H)-one], the pIC50 was over 7.00.
The result for `[2H]C([2H])([2H])N1C(=O)c2cccc(OC(F)F)c2[C@H]2C[C@@H]1c1nc3ccc(C#CCOC4CCN(C)CC4)cc3n12` [Example 115, (7R,14R)-1-(difluoromethoxy)-6-(methyl-d3)-11-(3-((1-methylpiperidin-4-yl)oxy)prop-1-yn-1-yl)-6,7-dihydro-7,14-methanobenzo[f]benzo[4,5]imidazo[1,2-a][1,4]diazocin-5(14H)-one] reads over 7.00; that for `[2H]C([2H])([2H])N1C(=O)c2cccc(OC(F)F)c2[C@H]2C[C@@H]1c1nc3ccc(C#CC(C)C)cc3n12` [Example 75, (7R,14R)-1-(difluoromethoxy)-6-(methyl-d3)-11-(3-methylbut-1-yn-1-yl)-6,7-dihydro-7,14-methanobenzo[f]benzo[4,5]imidazo[1,2-a][1,4]diazocin-5(14H)-one], 6.00 to 7.00; that for `[2H]C([2H])([2H])N1C(=O)c2cccc(OC(F)F)c2[C@H]2C[C@@H]1c1nc3ccc(C#CCCCC)cc3n12` [Example 91, (7R,14R)-1-(difluoromethoxy)-11-(hex-1-yn-1-yl)-6-(methyl-d3)-6,7-dihydro-7,14-methanobenzo[f]benzo[4,5]imidazo[1,2-a][1,4]diazocin-5(14H)-one], over 7.00.
The result for `[2H]C([2H])([2H])N1C(=O)c2cccc(OC(F)F)c2[C@H]2C[C@@H]1c1nc3ccc(C#CCCN4CCN(C)CC4)cc3n12` [Example 134, (7R,14R)-1-(difluoromethoxy)-6-(methyl-d3)-11-(4-(4-methylpiperazin-1-yl)but-1-yn-1-yl)-6,7-dihydro-7,14-methanobenzo[f]benzo[4,5]imidazo[1,2-a][1,4]diazocin-5(14H)-one] reads over 7.00.
Regarding `[2H]C([2H])([2H])N1C(=O)c2cccc(OC(F)F)c2[C@H]2C[C@@H]1c1nc3ccc(C#C[C@H](C)NCC)cc3n12` [Example 55, (7R,14R)-1-(difluoromethoxy)-11-((S)-3-(ethylamino)but-1-yn-1-yl)-6-(methyl-d3)-6,7-dihydro-7,14-methanobenzo[f]benzo[4,5]imidazo[1,2-a][1,4]diazocin-5(14H)-one], the pIC50 was 4.52 to 5.00.
In the case of `[2H]C([2H])([2H])N1C(=O)c2cccc(OC(F)F)c2[C@H]2C[C@@H]1c1nc3ccc(C#Cc4cnn(CCN)c4)cc3n12` [Example 15, (7R,14R)-11-((1-(2-aminoethyl)-1H-pyrazol-4-yl)ethynyl)-1-(difluoromethoxy)-6-(methyl-d3)-6,7-dihydro-7,14-methanobenzo[f]benzo[4,5]imidazo[1,2-a][1,4]diazocin-5(14H)-one], the pIC50 was over 7.00.
